Experimental findings from patent US12060347B2 (BRISTOL-MYERS SQUIBB COMPANY, priority 2016, dated 2024) are described below.

pIC50: −log10 of the molar value.

This assay has as its target T1, human PAR4 (Homo sapiens, UniProt Q96RI0).
T1 construct: expressed in transfected cells; host or cells: HEK293 PAR4 Clone 1.2A (BMS Arctic ID 383940)
T1 sequence (Q96RI0 18-385): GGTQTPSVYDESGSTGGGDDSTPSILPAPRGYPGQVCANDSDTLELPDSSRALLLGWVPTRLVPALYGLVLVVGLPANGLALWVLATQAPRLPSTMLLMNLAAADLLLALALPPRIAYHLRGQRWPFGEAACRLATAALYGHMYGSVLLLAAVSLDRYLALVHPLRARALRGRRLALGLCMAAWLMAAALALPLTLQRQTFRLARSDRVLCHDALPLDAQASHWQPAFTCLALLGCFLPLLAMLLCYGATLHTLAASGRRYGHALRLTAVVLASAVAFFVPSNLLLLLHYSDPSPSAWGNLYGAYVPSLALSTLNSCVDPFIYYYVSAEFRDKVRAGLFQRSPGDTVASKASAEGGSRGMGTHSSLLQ
Kind of assay: PAR4 FLIPR assay: antagonism of agonist-peptide-induced calcium mobilization in PAR4-expressing HEK293 cells. Format: cell-based. The note with it: H-Ala-Phe(4-F)-[…]NH2-induced intracellular calcium mobilization, 11-point curves. On the technique in general: A change in cytosolic calcium serves as a functional read-out for many receptors and channels.

In the case of `COc1ccc(C)c2nc(-c3cc(C)cc4nc(OC(F)F)cnc34)sc12` [Example 12, 2-(2-(difluoromethoxy)-7-methylquinoxalin-5-yl)-7-methoxy-4-methylbenzo[d]thiazole], the pIC50 was 8.70. The result for `COCc1cnc2c(-c3nc4c(C)cc(OCCNS(=O)(=O)c5ccc(F)cc5)cc4s3)cc(F)cc2n1` [Example 207, 4-fluoro-N-(2-((2-(7-fluoro-2-(methoxymethyl)quinoxalin-5-yl)-4-methylbenzo[d]thiazol-6-yl)oxy)ethyl)benzenesulfonamide] reads 9.05.

As to `Cc1cc(-c2nc3cc(F)c(O[C@@H](C)[C@@H](C)OC(=O)Nc4cnc(C)nc4)cc3s2)c2ncc(N(C)C)nc2c1` [Example 522, (2R,3S)-3-((2-(2-(dimethylamino)-7-methylquinoxalin-5-yl)-5-fluorobenzo[d]thiazol-6-yl)oxy)butan-2-yl (2-methylpyrimidin-5-yl)carbamate], the pIC50 was 7.70. `CCCc1ncc(NC(=O)O[C@H](C)[C@H](C)Oc2cc3sc(-c4cc(C)cc5nc(OC)cnc45)nc3cc2F)cn1` [Example 414, (2R,3S)-3-((5-fluoro-2-(2-methoxy-7-methylquinoxalin-5-yl)benzo[d]thiazol-6-yl)oxy)butan-2-yl (2-propylpyrimidin-5-yl)carbamate]: the pIC50 is 8.15. The result for `COc1cnc2c(-c3nc4c(Cl)c(F)c(OC[C@@H](C)OC(=O)OCc5ccc(N)cn5)cc4s3)cc(C)cc2n1` [Example 596, (R)-(5-aminopyridin-2-yl)methyl (1-((4-chloro-5-fluoro-2-(2-methoxy-7-methylquinoxalin-5-yl)benzo[d]thiazol-6-yl)oxy)propan-2-yl) carbonate] reads 6.89. The result for `COc1cnc2c(-c3nc4cc(F)c(OC[C@@H](C)OC(=O)Nc5ccc(C(=O)N6CCOC[C@@H]6CO)nc5)cc4s3)cc(C)cc2n1` [Example 489, (R)-1-((5-fluoro-2-(2-methoxy-7-methylquinoxalin-5-yl)benzo[d]thiazol-6-yl)oxy)propan-2-yl (6-((S)-3-(hydroxymethyl)morpholine-4-carbonyl)pyridin-3-yl)carbamate] reads 8.04; that for `CCc1cnc2c(-c3nc4c(C)cc(OCCNS(=O)(=O)c5ccc(F)cc5)cc4s3)cc(C)cc2n1` [Example 31, N-(2-((2-(2-ethyl-7-methylquinoxalin-5-yl)-4-methylbenzo[d]thiazol-6-yl)oxy)ethyl)-4-fluorobenzenesulfonamide], 6.62. `Cc1cc(-c2cc3ccccc3o2)c2ncc(-c3ccoc3)nc2c1` [Example 135, 5-(benzofuran-2-yl)-2-(furan-3-yl)-7-methylquinoxaline]: the pIC50 is 5.66. The same measure for `COc1cnc2c(-c3nc4c(Cl)c(F)c(O[C@@H](C)[C@@H](C)OC(=O)Nc5cncc(C#N)c5)cc4s3)cc(Cl)cc2c1` [Example 802, (2R,3S)-3-((4-chloro-2-(6-chloro-3-methoxyquinolin-8-yl)-5-fluorobenzo[d]thiazol-6-yl)oxy)butan-2-yl (5-cyanopyridin-3-yl)carbamate]: 8.70; for `COc1cnc2c(-c3nc4cc(F)c(OC[C@@H](C)OC(=O)Nc5ccnc(C(=O)NCCO)c5)cc4s3)cc(C)cc2n1` [Example 442, (R)-1-((5-fluoro-2-(2-methoxy-7-methylquinoxalin-5-yl)benzo[d]thiazol-6-yl)oxy)propan-2-yl (2-((2-hydroxyethyl)carbamoyl)pyridin-4-yl)carbamate]: 9.10. The same measure for `COC(=O)c1cc(OC)cc2sc(-c3cc(C)cc4nc(OC)cnc34)nc12` [Example 152, methyl 6-methoxy-2-(2-methoxy-7-methylquinoxalin-5-yl)benzo[d]thiazole-4-carboxylate]: 7.42; for `COCc1cnc2c(-c3nc4c(C)cc(OCCNS(=O)(=O)c5ccc(F)cc5)cc4s3)cc(C(F)(F)F)cc2n1` [Example 209, 4-fluoro-N-(2-((2-(2-(methoxymethyl)-7-(trifluoromethyl)quinoxalin-5-yl)-4-methylbenzo[d]thiazol-6-yl)oxy)ethyl)benzenesulfonamide]: 8.96. The result for `CNC(=O)c1ccc(NC(=O)O[C@H](C)COc2cc3sc(-c4cc(C)cc5nc(OC)cnc45)nc3cc2F)cn1` [Example 432, (R)-1-((5-fluoro-2-(2-methoxy-7-methylquinoxalin-5-yl)benzo[d]thiazol-6-yl)oxy)propan-2-yl (6-(methylcarbamoyl)pyridin-3-yl)carbamate] reads 9.40. On to `COc1cc(C(O)C(C)(C)C)c2nc(-c3cc(C)cc4nc(OC)cnc34)sc2c1` (centres unmarked) [Example 630, 1-(6-methoxy-2-(2-methoxy-7-methylquinoxalin-5-yl)benzo[d]thiazol-4-yl)-2,2-dimethylpropan-1-ol], for which the pIC50 is 8.85. In the case of `COc1cnc2c(-c3nc4cc(F)c(O[C@@H](C)[C@@H](C)OC(=O)Nc5cncc(OCCO)c5)cc4s3)cc(C)cc2n1` [Example 534, (2R,3S)-3-((5-fluoro-2-(2-methoxy-7-methylquinoxalin-5-yl)benzo[d]thiazol-6-yl)oxy) butan-2-yl (5-(2-hydroxyethoxy)pyridin-3-yl)carbamate], the pIC50 was 9.05. As for `COCc1cnc2c(-c3nc4c(C)cc(Cl)nc4s3)cc(C)cc2n1` [Example 191, 5-chloro-2-(2-(methoxymethyl)-7-methylquinoxalin-5-yl)-7-methylthiazolo[5,4-b] pyridine], the pIC50 was 8.19. For `COc1cnc2c(-c3cc4cc(OCCOC(=O)Nc5ccnc(C)c5)c(F)cc4o3)cc(C)cc2n1` [Example 123, 2-((6-fluoro-2-(2-methoxy-7-methylquinoxalin-5-yl)benzofuran-5-yl)oxy)ethyl (2-methylpyridin-4-yl)carbamate], the pIC50 is 8.82.

Turning to `COc1cnc2c(-c3nc4cc(F)c(O[C@@H](C)[C@@H](C)OC(=O)Nc5cnc(CO)nc5)cc4s3)cc(Cl)cc2c1` [Example 539, (2R,3S)-3-((2-(6-chloro-3-methoxyquinolin-8-yl)-5-fluorobenzo[d]thiazol-6-yl)oxy)butan-2-yl (2-(hydroxymethyl)pyrimidin-5-yl)carbamate], the negative-log IC50 (pIC50) was 8.19. The same measure for `COc1cc(C(O)C2CC2)c2nc(-c3cc(C)cc4nc(OC)cnc34)sc2c1` (centres unmarked) [Example 160, Cyclopropyl(6-methoxy-2-(2-methoxy-7-methylquinoxalin-5-yl)benzo[d]thiazol-4-yl) methanol]: 8.92; for `COc1ccc2nc(-c3cc(C)cc4nc(OC(F)F)cnc34)sc2c1` [Example 48, 2-(2-(difluoromethoxy)-7-methylquinoxalin-5-yl)-6-methoxybenzo[d]thiazole]: 8.68.

With `Cc1cc(-c2cc3ccccc3[nH]2)c2ncc(OC(F)F)nc2c1` [Example 5, 2-(difluoromethoxy)-5-(1H-indol-2-yl)-7-methylquinoxaline], the pIC50 is 6.06. The result for `COc1cnc2c(-c3nc4cc(C)c(OC)cc4s3)cc(C)cc2n1` [Example 279, 6-methoxy-2-(2-methoxy-7-methylquinoxalin-5-yl)-5-methylbenzo[d]thiazole] reads 7.74; that for `COc1cnc2c(-c3nc4c(C(O)C(C)(C)C)cc(F)cc4s3)cc(C)cc2n1` (centres unmarked) [Example 806, 1-(6-fluoro-2-(2-methoxy-7-methylquinoxalin-5-yl)benzo[d]thiazol-4-yl)-2,2-dimethylpropan-1-ol], 8.18; that for `COCc1cnc2c(-c3nc4c(C(O)C(F)(F)F)cc(OC)cc4s3)cc(C)cc2n1` (centres unmarked) [Example 171, 2,2,2-trifluoro-1-(6-methoxy-2-(2-(methoxymethyl)-7-methylquinoxalin-5-yl)benzo[d]thiazol-4-yl)ethanol], 9.22.

In the case of `COc1cc(C(O)C2(C)CC2)c2nc(-c3cc(C)cc4nc(OC)cnc34)sc2c1` (centres unmarked) [Example 671, (6-methoxy-2-(2-methoxy-7-methylquinoxalin-5-yl)benzo[d]thiazol-4-yl)(1-methylcyclopropyl)methanol], the pIC50 is 8.72. The same measure for `COc1cnc2c(-c3nc4cc(F)c(OC[C@@H](C)OC(=O)Nc5cnc(N(C)C)nc5)cc4s3)cc(C)cc2n1` [Example 597, (R)-1-((5-fluoro-2-(2-methoxy-7-methylquinoxalin-5-yl)benzo[d]thiazol-6-yl)oxy)propan-2-yl (2-(dimethylamino)pyrimidin-5-yl)carbamate]: 7.82. The same measure for `COc1cnc2c(-c3nc4cc(F)c(OCCOC(=O)Nc5cnc(F)c(C)c5)nc4s3)cc(C)cc2n1` [Example 811, 2-((6-fluoro-2-(2-methoxy-7-methylquinoxalin-5-yl)thiazolo[5,4-b]pyridin-5-yl)oxy) ethyl (6-fluoro-5-methylpyridin-3-yl)carbamate]: 8.82. The same measure for `COc1cnc2c(-c3nc4c(C)cc(OCCOC(=O)Nc5cccnc5)nc4s3)cc(C)cc2n1` [Example 196, 2-((2-(2-methoxy-7-methylquinoxalin-5-yl)-7-methylthiazolo[5,4-b]pyridin-5-yl)oxy)ethyl pyridin-3-ylcarbamate]: 8.64; for `COc1cnc2c(-c3nc4cc(F)c(O[C@@H](C)[C@@H](C)OC(=O)Nc5ccnc(CO)c5)nc4s3)cc(C)cc2n1` [Example 723, (2R,3S)-3-((6-fluoro-2-(2-methoxy-7-methylquinoxalin-5-yl)thiazolo[5,4-b]pyridin-5-yl)oxy)butan-2-yl (2-(hydroxymethyl)pyridin-4-yl)carbamate]: 8.62.

A word on the pIC50: it is −log10 of the IC50, conventionally taken in molar units.
